Experiments:
IL-4 = assay: T-cell receptor (anti-CD3/CD28)-induced IL-4 on PBMCs; type: cell-based; conditions: Homo sapiens, PBMC, anti-CD3/CD28 beads, 24 hours, ELISA, read-out: TCR-PBMCs IL-4 Protein IC50
Protocol: (§1) Cryopreserved human Peripheral Blood Mononuclear cells (PBMCs) from healthy adult donors were obtained from Zen Bio, Inc (Cat No. SER-PBMC-F). Cells were cultured in 96-well plates with lymphocyte media (Cat No. LYMPH-1) and were pre-treated with test materials (≤100 μM) for 2 hours and later co-treated with test materials and anti-CD3/CD28 beads (Thermo-Fisher; Cat No. 11131D) at 1:0.4 PBMC:bead ratio for 24 hours at 37° C. and 5% CO2. After incubation, cell media supernatants were harvested and used to measure cytokine levels (IL-4, IL-5, IL-10) using ELISA kits (BD Biosciences® #555194, #555157; R&D Systems® #DY317). Results were represented as percent of inhibition relative to untreated and anti-CD3/CD28 beads-only treated cells. IC50 values were determined by non-linear regression analysis using the four-parameter logistic equation.

IL-10 = assay: T-cell receptor (anti-CD3/CD28)-induced IL-10 on PBMCs; type: cell-based; conditions: Homo sapiens, PBMC, anti-CD3/CD28 beads, 24 hours, ELISA, read-out: TCR-PBMCs IL-10 Protein IC50
Protocol: as §1

DEFB4B (hBD2) = assay: NHEK antimicrobial peptide gene expression, hBD2; type: cell-based, human; conditions: 10 μM, 24 hours, qPCR, normalized to GAPDH
Protocol: Normal human epidermal keratinocytes (NHEKs) from neonatal donors were obtained from Thermo-Fisher (Cat No. C-001-5C). Cells were cultured in 6-well plates for 24 hours before treatments with EpiLife media (Cat No. MEPI500CA) supplemented with keratinocytes growth supplement (Cat No. 50015). On Day 2, media was removed and incubated with test materials (10 μM) for 24 hours at 37° C. and 5% CO2. On Day 3, total RNA was extracted from cells using the RNAqueous® kit (Ambion®; Cat No. 1912) and cDNA was obtained using the High Capacity RNA-to-cDNA kit (Applied Biosystems®; Cat No. 4387406). Quantitative PCR (qPCR) was performed using the TaqMan® Fast Advanced Master Mix (Applied Biosystems®; Cat No. 4444556) and specific TaqMan®-probes human gene primers DEFB4B (hBD2), DEFB103 (hBD3), HCAP18 and GAPDH to calculate the relative gene fold expression change per treatment. Gene expression analysis was performed using the comparative Ct method (also known as the 2-[delta][delta]Ct) approach by comparing the Ct values of the treated samples with the untreated samples and normalized to GAPDH gene expression as endogenous housekeeping gene. Results were represented as fold-expression/untreated cells.

TNF-α = assay: P. acnes-induced TNF-α protein on human PBMCs (ELISA); type: cell-based; conditions: PBMCs + live P. acnes 1:1, test material 30 PM, 24 hours
Protocol: (§2) Cryopreserved human Peripheral Blood Mononuclear cells (PBMCs) from healthy adult donors were obtained from Zen Bio, Inc (Cat No. SER-PBMC-F). Cells were cultured in 12-well plates with lymphocyte media (Cat No. LYMPH-1) and incubated with test materials ([…]) and live P. acnes (ATCC® 6919TM) at 1:1 PBMC: P. acnes bacteria ratio for 24 hours at 37° C. and 5% CO2. After incubation, cell media supernatants were harvested and used to measure pro-inflammatory cytokine levels (IL-8, TNF-α, IL-1b, IL-17) using ELISA kits (BD Biosciences® #557966, #555212, #555244; R&D Systems® #DY317). Total RNA was extracted from cells using the RNAqueous® kit (Ambion®; Cat No. 1912) and cDNA was obtained using the High Capacity RNA-to-cDNA kit (Applied Biosystems®; Cat No. 4387406). Quantitative PCR (qPCR) was performed using the TaqMan® Fast Advanced Master Mix (Applied Biosystems®; Cat No. 4444556) and specific TaqMan®-probes human gene primers CXCL8 (IL-8), IL1B (IL-1b), TNF (TNF-α), IL17A (IL-17A) and GAPDH to calculate the relative gene fold expression change per treatment. Gene expression analysis was performed using the comparative Ct method (also known as the 2-[delta][delta]Ct) approach by comparing the Ct values of P. acnes-only treated cells with the untreated samples and normalized to GAPDH gene expression as endogenous housekeeping gene.

TNF (TNF-α) = assay: P. acnes-induced TNF-α gene on human PBMCs (qPCR); type: cell-based; conditions: PBMC, PBMCs + live P. acnes 1:1, test material 30 PM, 24 hours, read-out: TNFa-Gene % inhibition
Protocol: as §2

IL17A (IL-17A) = assay: P. acnes-induced IL-17 gene on human PBMCs (qPCR); type: cell-based; conditions: PBMC, PBMCs + live P. acnes 1:1, test material 30 PM, 24 hours
Protocol: as §2

IL-8 = assay: TPA-induced IL-8 on NHEKs; type: cell-based; conditions: Homo sapiens; NHEK, TPA 5 ng/mL, 24 hours, ELISA
Protocol: Normal human epidermal keratinocytes (NHEKs) from neonatal donors were obtained from Thermo-Fisher (Cat No. C-001-5C). Cells were cultured in 96-well plates for 24 hours with EpiLife media (Cat No. MEPI500CA) supplemented with keratinocytes growth supplement (Cat No. S0015). On Day 2, media was removed and replaced with supplement-depleted medium for 24 hours. On Day 3, media was removed and cells were pre-treated with test materials (≤1 μM) for 2 hours and later co-treated with test materials and TPA (Sigma Aldrich, Cat No. P8139) at 5 ng/mL and incubated for 24 hours at 37° C. and 5% CO2. After incubation, cell media supernatants were harvested and used to measure pro-inflammatory cytokine levels (IL-8) using ELISA kit (BD Biosciences® #555244). Results were represented as percent of inhibition relative to untreated and TPA-only treated cells. IC50 values were determined by non-linear regression analysis using the four-parameter logistic equation.

IL-2 = assay: PHA-induced IL-2 on PBMCs; type: cell-based; conditions: Homo sapiens, PBMC, PHA-L 20 μg/mL, 24 hours, ELISA
Protocol: Cryopreserved human Peripheral Blood Mononuclear cells (PBMCs) from healthy adult donors were obtained from Zen Bio, Inc (Cat No. SER-PBMC-F). Cells were cultured in 96-well plates with lymphocyte media (Cat No. LYMPH-1) and were pre-treated with test materials (≤100 μM) for 2 hours and later co-treated with test materials and PHA-L (Sigma Aldrich, Cat No. 11249738001) at 20 μg/mL and incubated for 24 hours at 37° C. and 5% CO2. After incubation, cell media supernatants were harvested and used to measure cytokine levels (IL-2, IFNγ) using ELISA kits (R&D Systems® #DY202, #DY285). Results were represented as percent of inhibition relative to untreated and PHA-only treated cells. IC50 values were determined by non-linear regression analysis using the four-parameter logistic equation.

IL-17 = assay: Concanavalin-A-induced IL-17 on PBMCs; type: cell-based; conditions: Homo sapiens, PBMC, ConA, 24 hours, ELISA

IC50 (IL-4) | IC50 (IL-10) | IC50 (IL-8) | IC50 (IL-2) | IC50 (IL-17) | SMILES | hBD2 gene expression (DEFB4B (hBD2)) | TNFa-Protein % inhibition (TNF-α) | inhibition at 30 pM (TNF (TNF-α)) | inhibition at 30 pM (IL17A (IL-17A))
> 100 µM | 42 µM |  |  |  | C/C(=C\CSCC(NC(=O)NCC(=O)O)C(=O)O)CCCC(C)CCCC(C)CCCC(C)C (stereo not shown) [A] |  |  |  | 
20 µM | 34 µM | 0.02 µM | 0.9 µM | 0.5 µM | C/C(=C\CSC[C@H](NC(=O)N(C)CC(=O)O)C(=O)O)CCCC(C)CCCC(C)CCCC(C)C (stereo partly drawn) [Compound C, (2R)-2-{[(carboxymethyl)(methyl)carbamoyl]amino}-3-{[(2E)-3,7,11,15-tetramethylhexadec-2-en-1-yl]sulfanyl}propanoic acid] | 0.7 Fold-expression/untreated cells | 0% | 0% | 0%
2 µM | 9 µM | 0.02 µM | 0.04 µM | 3.1 µM | N#Cc1ccc(Oc2ccc3c(c2)COB3O)cc1 [AN2728, reference compound] |  |  |  | 
 |  |  | 3.3 µM | 94.2 µM | C/C(=C\CSCC(NC(=O)N(CC(=O)O)CC(=O)O)C(=O)O)CCCC(C)CCCC(C)CCCC(C)C (stereo not shown) [Compound G] | 2.5 Fold-expression/untreated cells | 0% | 0% | 0%
42 µM | 39 µM |  | 4.1 µM | 11.4 µM | C/C(=C\CSC[C@H](NC(=O)N1CCC[C@H]1C(=O)O)C(=O)O)CCCC(C)CCCC(C)CCCC(C)C (stereo partly shown) [Compound E] | 1.1 Fold-expression/untreated cells | 0% | 0% | 0%
25 µM | 19 µM | 0.03 µM | 0.1 µM | 69.7 µM | C/C(=C\CSC[C@H](NC(=O)COCC(=O)O)C(=O)O)CCCC(C)CCCC(C)CCCC(C)C (stereo partly shown) [Compound T] |  |  | 0% | 0%

Source: US11802107B2, “Compounds and methods of use” (Signum Biosciences, Inc., priority 2017, dated 2023)
